31 compounds from US10010520B2, “Combined application of isothiocyanate compound and anti-cancer medicine” (JC (WUXI) COMPANY, INC., priority 2013, dated 2018) can be followed below.

Values joined by “and” are separate entries in the source; they are usually repeats but may differ in a detail not shown here. Equal entries are not always repeated. Structures can show the parent of a compound that is named as a salt. Where two headings read alike, the source gives them in different places.

The test system of one experiment is LNCaP cells. The experiment in a line: CellTiter-Glo cell viability, drugs alone or in combination, LNCaP cells. The class given is cell-based, human. As for the experimental part: Cell culture: Androgen-dependent human prostate cancer cells LNCaP, from Shanghai Medicilon Ltd., were placed in a 37° C., 5% CO2 cell incubator, and were cultured in RPMI1640 culture medium with 10% FBS. Androgen-independent human prostate cancer cells DU145, PC-3, from Shanghai Medicilon Ltd., were placed in a 37° C., 5% CO2 cell incubator, and were cultured in F12 culture medium with 10% FBS.
(§1) isothiocyanates or derivatives thereof and DNA-effecting or influencing anticancer drugs, kinase-inhibiting anticancer drugs or hormonal anticancer drugs for endocrine therapy were administered separately or in combination to cancer cells. Cells were seeded into 384-well plates, and cultured for 24 hours in a CO2 incubator. Drugs were dissolved in DMSO and diluted to 9 concentration-gradients in 96 well plates, and then added to corresponding cells in 384-well plates, in which the concentrations of DMSO in 384 well plates were less than 1%. Triplicate wells were set for each concentration. After administration, the cells were cultured in the CO2 incubator for another 72 hrs, and afterwards, cell viability was tested by using CellTiter-Glo® reagent and luminescence detector. And IC50 values of each administration group were calculated.
(§2) CI value was calculated by the following formula: CI=(Am)50/(As)50+(Bm)50/(Bs)50,
(§3) Triplicate wells were set for each co-administration cell well.
(§4) After administration, cells were cultured in the CO2 incubator for another 72 hrs, and afterwards, cell viability was tested by using CellTiter-Glo® reagent and luminescence detector. Curves were plotted according to concentrations or logarithm concentrations of drug A vs cell inhibition rate in the corresponding cell well, and IC50, i.e. (Am)50 was calculated.
(§5) 9 concentration gradients of drug A were set (A1, A2, A3, A4, A5, A6, A7, A8, A9), and administrated alone to the corresponding cells in the 384 well plate, and triplicate wells were set for each administration concentration. After administration, the cells were cultured in the CO2 incubator for another 72 hrs, and afterwards, cell viability was tested by using CellTiter-Glo® reagent and luminescence detector. Curves were plotted according to concentration or logarithm concentration of drug A vs the cell inhibition rate in the corresponding cell well, and IC50, i.e. (As)50 was calculated.
(§6) After administration, the cells were cultured in the CO2 incubator for another 72 hrs, and afterwards, cell viability was tested by using CellTiter-Glo® reagent and luminescence detector.
In general terms: In ATP-based viability assays light output follows the ATP content of the culture.

Experiment [1] relates to pancreatic cancer cells PANC-1. The experiment can be described thus: CellTiter-Glo cell viability, drugs alone or in combination, PANC-1 cells. The class given is cell-based, human. As for the experimental part:
as §1, §2, §3, §4, §5, §6

A further experiment has as its system OVCAR-3 cells. The experiment in a line: CellTiter-Glo cell viability, drugs alone or in combination, OVCAR-3 cells.
The test system of another experiment is U251 cells. The experiment can be described thus: CellTiter-Glo cell viability, drugs alone or in combination, U251 cells. The conditions noted are these: 72 hrs.
For experiment [2], the system named is Human breast cancer MDA-MB-231 cells. The experiment can be described thus: CellTiter-Glo cell viability, drugs alone or in combination, MDA-MB-231 cells. The conditions noted are these: Homo sapiens, MDA-MB-231, 72 h, read-out: (Bs)50, IC50 of drug B when used alone, MDA-MB-231 cells; 72 hrs.
Experiment [3] concerns human kidney cancer cells 786-O. The experiment can be described thus: CellTiter-Glo cell viability, drugs alone or in combination, 786-O cells. The conditions noted are these: 786-0, 72 h, read-out: (Bs)50, IC50 of drug B when used alone, 786-O cells, 72 hrs.
In a further experiment the test system is Jurkat E6-1 cells. The experiment can be described thus: CellTiter-Glo cell viability, drugs alone or in combination, Jurkat E6-1 cells. The settings on record: Homo sapiens, read-out: (Bs)50, IC50 of drug B when used alone. It counts as cell-based, human. How it is done: as §1, §2, §3, §4, §5, §6
A further experiment deals with Saos-2 cells. The experiment can be described thus: CellTiter-Glo cell viability, drugs alone or in combination, Saos-2 cells. It counts as cell-based, human. The settings on record: Homo sapiens, SAOS-2, 72 h, Saos-2 cells; 72 hrs; read-out: (Bs)50, IC50 of drug B when used alone. How it is done:
as §1, §2, §3, §4, §5, §6

Experiment [4] concerns human leukemia HL-60 cells. The experiment in a line: CellTiter-Glo cell viability, drugs alone or in combination, HL-60 cells. The class given is cell-based. The settings on record: read-out: (Bs)50, IC50 of drug B when used alone. How it is done: as §1, §2, §3, §4, §5, §6
Where [5] appears, read: Homo sapiens, LNCaP, 72 h, LNCaP cells, 72 hrs, read-out: (As)50, IC50 of drug A when used alone.
[6] abbreviates: Homo sapiens, PANC-1 cells, 72 hrs, read-out: (As)50, IC50 of drug A when used alone.
Setting [7] is: PANC-1 cells, 72 hrs, read-out: (As)50, IC50 of drug A when used alone.
[8] abbreviates: Homo sapiens, U-251, 72 h, read-out: (Bs)50, IC50 of drug B when used alone, U251 cells.
The mark [9] stands for this setting: LNCaP cells, 72 hrs, read-out: (As)50, IC50 of drug A when used alone.

A word on the IC50: it is the concentration that inhibits the measured activity by half. Consider `S=C=NCCCc1ccccc1` [3-Phenylpropyl isothiocyanate, 3-phenyl propyl isothiocyanate], for which the IC50 with LNCaP cells (setting [5]) came to 24.5 µM.
Consider `S=C=NCCCCc1ccccc1` [4-Phenbutyl isothiocyanate, 4-phenylbutyl isothiocyanate], for which the IC50 is 17.5 µM in the experiment with LNCaP cells (setting [5]) and 26.9 µM in experiment [1] (setting [6]).
As for `S=C=NCc1ccc(Cl)cc1` [4-chloro-benzyl isothiocyanate], the IC50 in the experiment on LNCaP cells (Homo sapiens, LNCaP, 72 h, read-out: (As)50, IC50 of drug A when used alone) is 17.3 µM; with OVCAR-3 cells (Homo sapiens, OVCAR-3, 72 h, read-out: (As)50, IC50 of drug A when used alone), 18.2 µM; in experiment [1] (Homo sapiens, PANC-1, 72 h, read-out: (As)50, IC50 of drug A when used alone) it was 34 µM.
On to `COc1ccc(CN=C=S)cc1` [4-methoxy-benzyl isothiocyanate], for which the IC50 in [1] (setting [6]) was found to be 11.3 µM.
`S=C=NCCCCCCc1ccccc1` [6-Phenhexyl isothiocyanate, 6-phenyl-hexyl isothiocyanate]: the IC50 in the experiment on LNCaP cells (setting [5]) was determined as 18.8 µM; in [1] (setting [6]), 30.9 µM.
For the compound `CC(N=C=S)c1ccccc1` [L-ethyl phenyl isothiocyanate], the IC50 with OVCAR-3 cells (read-out: (As)50, IC50 of drug A when used alone, OVCAR-3 cells, 72 hrs) was 43.6 µM; in [1] (setting [7]), 24 µM.
With `O=NN(CCCl)C(=O)NC1CCCCC1` [Lomustine], the IC50 in the experiment on U251 cells (setting [8]) was determined as 65.4 µM; with U251 cells (read-out: (Bs)50, IC50 of drug B when used alone, U251 cells), 115 µM.
In the case of `CC(=O)O[C@H]1C(=O)[C@@]2(C)[C@H]([C@H](OC(=O)c3ccccc3)[C@]3(O)C[C@H](OC(=O)[C@H](O)[C@@H](NC(=O)c4ccccc4)c4ccccc4)C(C)=C1C3(C)C)[C@]1(OC(C)=O)CO[C@@H]1C[C@@H]2O` [Paclitaxel, paclitaxel, reference compound], the IC50 in [2] worked out at 0.0199 µM.
As to `Cc1ccc(Nc2nccc(N(C)c3ccc4c(C)n(C)nc4c3)n2)cc1S(N)(=O)=O` [Pazopanib, pazopanib, reference compound], in experiment [3], the IC50 amounted to 199 µM.
As for `S=C=Nc1ccccc1` [Phenyl isothiocyanate, phenyl isothiocyanate], the IC50 is 43.6 µM in the experiment on LNCaP cells (setting [5]) and 77.2 µM in experiment [1] (setting [6]).
Turning to `S=C=NCCCc1ccccc1` [Phenylpropyl isothiocyanate, phenylpropyl isothiocyanate], the IC50 turned out to be 22.9 µM with LNCaP cells (setting [9]) and 35.1 µM in experiment [1] (setting [6]).
Turning to `C#CCC(Cc1cnc2nc(N)nc(N)c2n1)c1ccc(C(=O)N[C@@H](CCC(=O)O)C(=O)O)cc1` (stereo partly drawn) [Pralatrexate, reference compound], the IC50 with Jurkat E6-1 cells (Jurkat E6.1, 72 h, Jurkat E6-1 cells, 72 hrs) was determined as 0.0017 µM.
With `C/C=C1\NC(=O)[C@H]2CSSCC/C=C/[C@H](CC(=O)N[C@H](C(C)C)C(=O)N2)OC(=O)[C@H](C(C)C)NC1=O` [Romidepsin, romidepsin, reference compound], the IC50 with Jurkat E6-1 cells (Jurkat E6-1 cells, 72 hrs) amounted to 0.00201 µM.
Consider `CNC(=O)c1cc(Oc2ccc(NC(=O)Nc3ccc(Cl)c(C(F)(F)F)c3)cc2)ccn1` [Sorafenib, sorafenib, reference compound], for which the IC50 in experiment [3] came out at 6.99 µM.
Consider `C=CCN=C=S` [allyl isothiocyanate], for which the IC50 in [1] (setting [6]) stood at 116 µM.
For the compound `Cn1c(CCCC(=O)O)nc2cc(N(CCCl)CCCl)ccc21` [bendamustine, Bendamustine, reference compound], the IC50 in the experiment with Jurkat E6-1 cells (Jurkat E6.1, 72 h) was > 100 µM.
As for `CC(C)C[C@H](NC(=O)[C@H](Cc1ccccc1)NC(=O)c1cnccn1)B(O)O` [bortezomib, reference compound], the IC50 with Saos-2 cells was 0.807 µM.
As to `N.N.O=C([O-])C1(C(=O)[O-])CCC1.[Pt+2]` [carboplatin, Carboplatin], the IC50 in the experiment on OVCAR-3 cells (read-out: (Bs)50, IC50 of drug B when used alone, OVCAR-3 cells, 72 hrs) was 58.9 µM and 38.7 µM.
On to `O=P1(N(CCCl)CCCl)NCCCO1` (stereo not drawn) [cyclophosphamide, Cyclophosphamide], for which the IC50 with OVCAR-3 cells (Homo sapiens, OVCAR-3, 72 h, read-out: (Bs)50, IC50 of drug B when used alone) was > 100 µM.
Consider `COc1cccc2c1C(=O)c1c(O)c3c(c(O)c1C2=O)C[C@@](O)(C(C)=O)C[C@@H]3O[C@H]1C[C@H](N)[C@H](O)[C@H](C)O1` [daunorubicin, Daunorubicin], for which the IC50 in [4] (72 hrs) is 0.236 µM.
Consider `C#Cc1cccc(Nc2ncnc3cc(OCCOC)c(OCCOC)cc23)c1` [erlotinib, reference compound], for which the IC50 in experiment [1] (Homo sapiens, PANC-1, 72 h, PANC-1 cells, 72 hrs, read-out: (Bs)50, IC50 of drug B when used alone) was > 100 µM.
For the compound `CO[C@H]1C[C@@H]2CC[C@@H](C)[C@@](O)(O2)C(=O)C(=O)N2CCCC[C@H]2C(=O)O[C@H]([C@H](C)C[C@@H]2CC[C@@H](OCCO)[C@H](OC)C2)CC(=O)[C@H](C)/C=C(\C)[C@@H](O)[C@@H](OC)C(=O)[C@H](C)C[C@H](C)/C=C/C=C/C=C/1C` [everolimus], the IC50 with U251 cells (setting [8]) stood at 23.7 µM.
As to `Nc1nc(F)nc2c1ncn2[C@@H]1O[C@H](CO)[C@@H](O)[C@@H]1O` [fludarabine, Fludarabine], in [4] (Homo sapiens, HL-60, 72 h), the IC50 stood at 1.57 µM.
Take `CCNC(=O)[C@@H]1CCCN1C(=O)[C@H](CCCNC(=N)N)NC(=O)[C@H](CC(C)C)NC(=O)[C@@H](CC(C)C)NC(=O)[C@H](Cc1ccc(O)cc1)NC(=O)[C@H](CO)NC(=O)[C@H](Cc1c[nH]c2ccccc12)NC(=O)[C@H](Cc1c[nH]cn1)NC(=O)[C@@H]1CCC(=O)N1` [leuprorelin, reference compound]: the IC50 with LNCaP cells (LNCaP cells, 72 hrs, read-out: (Bs)50, IC50 of drug B when used alone) amounted to 323 µM.
On to `Cc1cn(-c2cc(NC(=O)c3ccc(C)c(Nc4nccc(-c5cccnc5)n4)c3)cc(C(F)(F)F)c2)cn1` [nilotinib], for which the IC50 in experiment [4] (Homo sapiens, HL-60, 72 h) stood at 3.9 µM.
For the compound `CC(=O)N[C@@H](CSC(=S)NCCc1ccccc1)C(=O)O` [phenethyl isothiocyanate-N-acetylcysteine adduct], the IC50 in the experiment on LNCaP cells (setting [9]) was determined as 16.4 µM; in [1] (setting [7]), 28.6 µM.
For the compound `C[S+]([O-])CCCCN=C=S` (stereo not drawn) [sulforaphane, 1-isothiocyanate-4-methanesulfonyl butane], the IC50 is 15.3 µM with LNCaP cells (setting [5]) and 14.3 µM in [1] (Homo sapiens, PANC-1, 72 h, PANC-1 cells, 72 hrs, read-out: (As)50, IC50 of drug A when used alone).
Regarding `CC[C@@]1(O)C(=O)OCc2c1cc1n(c2=O)Cc2cc3c(CN(C)C)c(O)ccc3nc2-1` [topotecan, Topotecan], the half-maximal inhibitory concentration (IC50) in the experiment on OVCAR-3 cells (Homo sapiens, OVCAR-3, 72 h, read-out: (Bs)50, IC50 of drug B when used alone, OVCAR-3 cells, 72 hrs) came to 0.0774 µM.
Take `S=C=NC(c1ccccc1)(c1ccccc1)c1ccccc1` [trityl isothiocyanate]: the IC50 with LNCaP cells (setting [5]) is 238 µM; in [1] (setting [6]), > 50 µM.
With `CC[C@]1(O)C[C@H]2CN(CCc3c([nH]c4ccccc34)[C@@](C(=O)OC)(c3cc4c(cc3OC)N(C=O)[C@H]3[C@@](O)(C(=O)OC)[C@H](OC(C)=O)[C@]5(CC)C=CCN6CC[C@]43[C@@H]65)C2)C1` [vincristine sulfate], in [4] (72 hrs), the IC50 stood at 0.0126 µM.
In the case of arsenic trioxide, in [4] (72 hrs), the IC50 was 2.75 µM.
